According to paper PMC12198282, “Application of a high-density microelectrode array assay using a 3D human iPSC-derived brain microphysiological system model for in vitro neurotoxicity screening of environmental compounds” (Archives of Toxicology, 2025):
“Also recorded” adds a separate entry of the source. Read-outs that look alike come from different tables or passages of the source.

Legend:
[1] = tested on: human iPSC-derived 3D BrainSpheres; assay: BrainSphere MEA assay (HD-MEA, 13-day exposure, concentration-response); type: cell-based; conditions: for EC (benchmark response 1.349 SD): 312 h; on hitc Mean.Spheroid.Burst.Duration: key: 1 (active); 0 (inactive); on hitc Mean.Spheroid.Burst.ISI: key: 1 (active); 0 (inactive); on hitc Mean.Spheroid.Burst.Peak.Firing.Rate: key: 1 (active); 0 (inactive); on hitc Mean.Spheroid.Firing.Rate: key: 1 (active); 0 (inactive); on hitc Mean.Spheroid.IBI: key: 1 (active); 0 (inactive); on hitc Mean.Spheroid.Nonburst.ISI: key: 1 (active); 0 (inactive); on hitc Mean.Spheroid.Spikes.per.Burst.per.Electrode: key: 1 (active); 0 (inactive); on hitc Mean.Spheroid.Spikes.per.Burst: key: 1 (active); 0 (inactive); on hitc Spheroid.Burst.Frequency: key: 1 (active); 0 (inactive); on hitc Spheroid.Spike.Amplitude.90th.Percentile: key: 1 (active); 0 (inactive)
Description: A volume of 1 ml of Tergazyme (1% solution in deionized water) was added to each well of the MaxTwo 6-Well Plate (MaxWell Biosystems) and incubated overnight under constant gyratory shaking (88 RPM) at 37 °C and 5% CO2. The next day, Tergazyme solution was removed, and plates were washed with distilled water and ethanol. After remaining ethanol was evaporated, wells were washed with PBS. Then, 200 µl of Poly-D-Lysine (Gibco, A38904 - 01) was added on top of the electrodes and incubated at 37 °C and 5% CO2 for 3 h (humidified). Poly-D-Lysine was then removed, and wells were coated with 100 µl of 0.1 mg/ml laminin coating solution (Sigma-Aldrich, L2020 - 1 mg) and incubated for 2 h at 37 ℃ and 5% CO2 (humidified). The laminin was removed after incubation. Using a 1 ml micropipette, 1 ml of medium containing BrainSpheres (7 weeks differentiated), approximately 25 BrainSpheres per ml, was plated on top of the HD-MEA chip (Fig. 1A). Afterwards, the plate was placed in an incubator at 37 °C and 5% CO2 and moved in circles to accumulate the BrainSpheres on top of the electrode area (Fig. 1A). The plate was kept in an incubator (humidified) for 2 days to allow attachment of the BrainSpheres with no gyratory shaking of the plates.
The MaxTwo high-density microelectrode array system (MaxWell Biosystems AG, Zurich, Switzerland) was used to measure neural activity with MaxTwo 6-well plates, where every well includes an integrated chip with 26,400 platinum electrodes arranged in an area of 3.85 × 2.10 mm^2 ([…]) (Muller et al. [2015]). The data were recorded and analyzed with the MaxLab Live Software (version 22.2.22). First, the MaxLab live ActivityScan Assay was used to identify the activity and positioning of the BrainSpheres on the array by scanning all the 26,400 electrodes in 29 configurations in a well (Assay Parameters: Configuration = Full; Recording time per configuration = 60 s (s)). The settings gain = 512, high-pass-filter (HPF): ~ 1 Hz and spike threshold = 5 X root-mean square (RMS) noise were used for all HD-MEA recordings. Circular regions of interest (ROI) were manually selected in the Activity Map where neuronal activity was apparent by an increased activity (Fig. 2). Over the course of the 13-day experiment, the same selected regions and electrodes were measured using the MaxLab Live Network Assay (600 s recording time).
A custom analysis framework was used to extract the MaxLab Live neuronal metrics for the individual BrainSpheres. For this, electrodes comprising a single ROI (i.e., individual BrainSphere; Fig. 2D) were grouped using distance-based clustering (fcluster method of Scipy library, Python 3.7) and neural metrics were calculated for the clustered electrodes for every ROI separately. Figure 2E presents a raster plot illustrating the activity associated with individual Regions of Interest (ROIs). […] Ten MaxLab Live neural metrics (endpoints) were evaluated from the MaxLab live ActivityScan and Network Assay in this study. See Table 3 for the endpoint definitions, tuned parameters, and activity type (general versus network connectivity).
The BrainSphere MEA assay measured changes in neural activity during a 13-day chemical exposure. The first recording day of the concentration–response screening protocol (day of exposure (DOE) 0) occurred after 7 weeks of BrainSphere differentiation, 48 h after plating on HD-MEA plates (Fig. 1B). The study included at least three biological replicates (one well per plate) from separate experiments (e.g., three different plates on three different days) and each well included multiple BrainSpheres which were considered technical replicates.

2D rat cortical cultures [2] = conditions: rNFA mc5 hit call; cytotoxicity AlamarBlue; cited from earlier work
2D rat cortical cultures [3] = conditions: rNFA mc5 hit call; cytotoxicity LDH; cited from earlier work
[4] = AUC over 13-day exposure, tcplfit2
[5] = tcplfit2 BMD at benchmark response (1.349*SD of baseline controls)
[6] = tcplfit2 output ACC, activity cutoff in Supplemental Table 1

SMILES: CC(C)(c1ccc(O)cc1)c1ccc(O)cc1 [Bisphenol A]
- Difference of minimum potency between BrainSphere MEA assay and rNFA ([1]; 5th percentile of AC50 values by chemical, above 0.5 = more potent in the rNFA): ≤ 0.5 log10 µM
- hitc Mean.Spheroid.Burst.Duration [1, 4]: 1
- hitc Mean.Spheroid.Burst.ISI [1, 4]: 1
- hitc Mean.Spheroid.Burst.Peak.Firing.Rate [1, 4]: 1
- hitc Mean.Spheroid.Firing.Rate [1, 4]: 1
- hitc Mean.Spheroid.IBI [1, 4]: 1
- hitc Mean.Spheroid.Nonburst.ISI [1, 4]: 0
- hitc Mean.Spheroid.Spikes.per.Burst [1, 4]: 1
- hitc Mean.Spheroid.Spikes.per.Burst.per.Electrode [1, 4]: 1
- hitc Spheroid.Burst.Frequency [1, 4]: 1
- hitc Spheroid.Spike.Amplitude.90th.Percentile [1, 4]: 1
- EC50 ([1]; Homo sapiens, 5th percentile across active AC50 values per chemical, read-out: Minimum potency): 29.1 µM
- EC (benchmark response 1.349 SD) ([1]; Homo sapiens, tcplfit2 BMD at benchmark response (1.349*SD of baseline controls), read-out: BMD Mean.Spheroid.Burst.ISI): 27 µM
- EC (benchmark response 1.349 SD) ([1]; Homo sapiens, tcplfit2 BMD at benchmark response (1.349*SD of baseline controls), read-out: BMD Mean.Spheroid.Nonburst.ISI): 50 µM
- AC50 ([1]; Homo sapiens, concentration at 50% maximal activity, Supplement 3 prints it also for curves with hit call 0, read-out: ac50 Mean.Spheroid.Burst.Duration): 29.4 µM
- AC50 ([1]; Homo sapiens, concentration at 50% maximal activity, Supplement 3 prints it also for curves with hit call 0, read-out: ac50 Mean.Spheroid.Burst.ISI): 29.2 µM
- AC50 ([1]; Homo sapiens, concentration at 50% maximal activity, Supplement 3 prints it also for curves with hit call 0, read-out: ac50 Mean.Spheroid.Burst.Peak.Firing.Rate): 30 µM
- AC50 ([1]; Homo sapiens, concentration at 50% maximal activity, Supplement 3 prints it also for curves with hit call 0, read-out: ac50 Mean.Spheroid.Firing.Rate): 29 µM
- AC50 ([1]; Homo sapiens, concentration at 50% maximal activity, Supplement 3 prints it also for curves with hit call 0, read-out: ac50 Mean.Spheroid.IBI): 45 µM
- AC50 ([1]; Homo sapiens, concentration at 50% maximal activity, Supplement 3 prints it also for curves with hit call 0, read-out: ac50 Mean.Spheroid.Nonburst.ISI): 45 µM
- AC50 ([1]; Homo sapiens, concentration at 50% maximal activity, Supplement 3 prints it also for curves with hit call 0, read-out: ac50 Mean.Spheroid.Spikes.per.Burst): 45 µM
- AC50 ([1]; Homo sapiens, concentration at 50% maximal activity, Supplement 3 prints it also for curves with hit call 0, read-out: ac50 Mean.Spheroid.Spikes.per.Burst.per.Electrode): 29.1 µM
- AC50 ([1]; Homo sapiens, concentration at 50% maximal activity, Supplement 3 prints it also for curves with hit call 0, read-out: ac50 Spheroid.Burst.Frequency): 45 µM
- AC50 ([1]; Homo sapiens, concentration at 50% maximal activity, Supplement 3 prints it also for curves with hit call 0, read-out: ac50 Spheroid.Spike.Amplitude.90th.Percentile): 45 µM
- EC50 ([1]; Homo sapiens, mean across active AC50 values per chemical, read-out: Mean potency): 36.3 µM
- AC50 ([1]; concentration at 50% maximal activity, Supplement 3 prints it also for curves with hit call 0, read-out: ac50 Mean.Spheroid.Burst.Peak.Firing.Rate): 29.6 µM
- AC50 ([1]; concentration at 50% maximal activity, Supplement 3 prints it also for curves with hit call 0, read-out: ac50 Mean.Spheroid.Firing.Rate): 29.3 µM
- Percent active ([1]; metrics active out of the total number of metrics screened): 90%
- BMD Mean.Spheroid.Burst.Duration [1, 5]: 28 µM
- BMD Mean.Spheroid.Burst.Peak.Firing.Rate [1, 5]: 28 µM
- BMD Mean.Spheroid.Firing.Rate [1, 5]: 30 µM
- BMD Mean.Spheroid.IBI [1, 5]: 31 µM
- BMD Mean.Spheroid.Spikes.per.Burst [1, 5]: 40 µM
- BMD Mean.Spheroid.Spikes.per.Burst.per.Electrode [1, 5]: 28 µM
- BMD Spheroid.Burst.Frequency [1, 5]: 47 µM
- BMD Spheroid.Spike.Amplitude.90th.Percentile [1, 5]: 33 µM
- ACC Mean.Spheroid.Burst.Duration [1, 6]: 27 µM
- ACC Mean.Spheroid.Burst.ISI [1, 6]: 26 µM
- ACC Mean.Spheroid.Burst.Peak.Firing.Rate [1, 6]: 28 µM
- ACC Mean.Spheroid.Firing.Rate [1, 6]: 31 µM
- ACC Mean.Spheroid.IBI [1, 6]: 44 µM
- ACC Mean.Spheroid.Nonburst.ISI [1, 6]: 58 µM
- ACC Mean.Spheroid.Spikes.per.Burst [1, 6]: 50 µM
- ACC Mean.Spheroid.Spikes.per.Burst.per.Electrode [1, 6]: 29 µM
- ACC Spheroid.Burst.Frequency [1, 6]: 42 µM
- ACC Spheroid.Spike.Amplitude.90th.Percentile [1, 6]: 44 µM
- Hits ([1]; total number of active endpoints out of 10 MEA activity metrics, 13-day exposure): 9
- hitc CCTE_Shafer_MEA_dev_AB (2D rat cortical cultures [2]): 0
- hitc CCTE_Shafer_MEA_dev_LDH (2D rat cortical cultures [3]): 0

SMILES: CC(=O)Nc1ccc(O)cc1 [Acetaminophen]
- Bioactivity across the 10 MEA endpoints of the BrainSphere MEA assay (in words) [1]: inactive in both assays; also recorded: inactive across all endpoints; also recorded: inactivity across all metrics in both models
- Bioactivity trend over time for MFR, mean spike amplitude and burst frequency (qualitative) [1]: no clear chemical-dependent effects were observed
- Hits [1]: 0
- Percent active [1]: 0%
- hitc Mean.Spheroid.Burst.Duration [1]: 0
- hitc Mean.Spheroid.Burst.ISI [1]: 0
- hitc Mean.Spheroid.Burst.Peak.Firing.Rate [1]: 0
- hitc Mean.Spheroid.Firing.Rate [1]: 0
- hitc Mean.Spheroid.IBI [1]: 0
- hitc Mean.Spheroid.Nonburst.ISI [1]: 0
- hitc Mean.Spheroid.Spikes.per.Burst [1]: 0
- hitc Mean.Spheroid.Spikes.per.Burst.per.Electrode [1]: 0
- hitc Spheroid.Burst.Frequency [1]: 0
- hitc Spheroid.Spike.Amplitude.90th.Percentile [1]: 0
- EC (benchmark response 1.349 SD) ([1]; Homo sapiens, read-out: BMD Mean.Spheroid.Burst.ISI): 415 µM
- EC (benchmark response 1.349 SD) ([1]; Homo sapiens, read-out: BMD Mean.Spheroid.Nonburst.ISI): 163 µM
- AC50 ([1]; Homo sapiens, read-out: ac50 Mean.Spheroid.Burst.Duration): 4.7 µM
- AC50 ([1]; Homo sapiens, read-out: ac50 Mean.Spheroid.Burst.ISI): 45 µM
- AC50 ([1]; Homo sapiens, read-out: ac50 Mean.Spheroid.Burst.Peak.Firing.Rate): 0.37 µM
- AC50 ([1]; Homo sapiens, read-out: ac50 Mean.Spheroid.IBI): 1.8 µM
- AC50 ([1]; Homo sapiens, read-out: ac50 Mean.Spheroid.Spikes.per.Burst): 6 µM
- AC50 ([1]; Homo sapiens, read-out: ac50 Mean.Spheroid.Spikes.per.Burst.per.Electrode): 0.39 µM
- AC50 ([1]; Homo sapiens, read-out: ac50 Spheroid.Burst.Frequency): 0.61 µM
- AC50 ([1]; Homo sapiens, read-out: ac50 Spheroid.Spike.Amplitude.90th.Percentile): 0.24 µM
- hitc CCTE_Shafer_MEA_dev_AB (2D rat cortical cultures [2]): 0
- hitc CCTE_Shafer_MEA_dev_LDH (2D rat cortical cultures [3]): 0
